SMILES strings stand for the structures. Calls of active or inactive are those of the source. The calls are words filed in the database; no cut-off is given here.

The record followed here is ChEMBL document CHEMBL3632563, “Synthesis of natural phaeosphaeride A derivatives and an in vitro evaluation of their anti-cancer potential” (Bioorg Med Chem Lett, 2015).

For test [1], the system named is A549. The test is described as follows: Cytotoxicity against human A549 cells assessed as decrease in cell viability at 25 to 100 uM after 48 hrs by SRB assay. In kind it is functional, cell-based. On the technique in general: The SRB assay estimates cell density from bound dye.
The test system of test [2] is A549. The test is described as follows: Cytotoxicity against human A549 cells assessed as decrease in cell viability at 10 to 100 uM after 48 hrs by SRB assay. In kind it is functional, cell-based. To be noted: for EC50: A549, 48 h.
Test [3] deals with A549. As to the kind of experiment: Cytotoxicity against human A549 cells assessed as decrease in cell viability at 10 to 100 uM after 48 hrs by MTT assay. Type of test: functional, cell-based. In general terms: Formazan colour is commonly taken as a measure of viable cells.
For test [4], the target named is Signal transducer and activator of transcription 3 (Homo sapiens, UniProt P40763). The test is described as follows: Inhibition of STAT3 (unknown origin) assessed as reduction in STAT3-DNA binding.
Signal transducer and activator of transcription 3, sequence (P40763 whole entry): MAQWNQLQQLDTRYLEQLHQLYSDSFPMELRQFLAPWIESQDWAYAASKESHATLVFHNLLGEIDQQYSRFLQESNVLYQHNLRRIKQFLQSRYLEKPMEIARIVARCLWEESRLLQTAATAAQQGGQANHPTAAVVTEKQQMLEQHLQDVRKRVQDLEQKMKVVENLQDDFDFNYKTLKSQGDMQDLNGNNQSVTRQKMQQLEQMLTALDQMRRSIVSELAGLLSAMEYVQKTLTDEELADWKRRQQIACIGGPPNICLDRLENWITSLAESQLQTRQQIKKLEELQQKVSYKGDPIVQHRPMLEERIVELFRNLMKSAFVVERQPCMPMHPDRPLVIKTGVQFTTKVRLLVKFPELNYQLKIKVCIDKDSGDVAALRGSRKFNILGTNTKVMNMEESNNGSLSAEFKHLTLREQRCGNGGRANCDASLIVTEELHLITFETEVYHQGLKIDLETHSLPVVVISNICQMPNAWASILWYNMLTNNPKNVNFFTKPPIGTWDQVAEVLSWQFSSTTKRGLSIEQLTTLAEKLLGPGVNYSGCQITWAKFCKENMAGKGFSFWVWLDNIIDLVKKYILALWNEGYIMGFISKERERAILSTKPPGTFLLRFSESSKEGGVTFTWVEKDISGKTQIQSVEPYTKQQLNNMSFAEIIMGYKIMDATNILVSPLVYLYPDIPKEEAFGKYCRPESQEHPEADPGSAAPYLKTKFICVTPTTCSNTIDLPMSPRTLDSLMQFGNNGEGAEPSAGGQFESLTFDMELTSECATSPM
Test [5] is described as follows: Growth inhibition of human U266 cells. In kind it is functional, cell-based. The settings on record: U-266.

A word on the EC50: it is the concentration giving half of the maximal effect. For `C=C1C2=C(C(=O)N1OC)[C@H](OC(=O)CCl)[C@@](C)(O)[C@H](CCCCC)O2`, in the test with A549 [1], the result was Active. In the test with A549 [2], the Activity entry is “Dose-dependent effect” and the EC50 amounted to 33 µM. Also, the outcome in the test on A549 [3] was Active.
In general, IC50 refers to the concentration needed to halve the response being measured. For the compound `C=C1C2=C(C(=O)N1OC)[C@H](O)[C@@](C)(O)[C@H](CCCCC)O2`, the result in the test with A549 [1] and in the test with A549 [3] was Active. Besides, the Activity entry in the test on A549 [2] is “Dose-dependent effect”. In addition, the EC50 was found to be 46 µM with A549 [2] and 6.7 µM in test [5]. In addition, in test [4], the concentration for half-maximal inhibition (IC50) stood at 610 µM.
As for `CCCCC[C@@H]1OC(/C(C)=N/OC)=C(C(=O)O)[C@H](O)[C@@]1(C)O`, the outcome with A549 [2] and with A549 [3] was inactive.
On to `CCCCC[C@@H]1OC2=C(C(=O)NC2(COC)OC)[C@H](O)[C@@]1(C)O` (some centres undefined), for which the outcome with A549 [2] and in the test on A549 [3] was inactive.
Regarding `CO[C@@]12[C@H](COC(N)=O)C3=C(C(=O)C(C)=C(N)C3=O)N1C[C@@H]1N[C@@H]12` [MITOMYCIN], in the test on A549 [2], the EC50 is 5.2 µM.
As to `C=C1C2=C(C(=O)N1OC)[C@H](OC(C)=O)[C@@](C)(O)[C@H](CCCCC)O2`, the result in the test on A549 [1] and in the test with A549 [3] was Active. In addition, in the test with A549 [2], the Activity entry is “Dose-dependent effect”. Also, the EC50 with A549 [2] turned out to be 49 µM.
